Test [1] deals with T1, Alpha-1A adrenergic receptor (Homo sapiens, UniProt P35348).
T1 sequence (P35348 whole entry): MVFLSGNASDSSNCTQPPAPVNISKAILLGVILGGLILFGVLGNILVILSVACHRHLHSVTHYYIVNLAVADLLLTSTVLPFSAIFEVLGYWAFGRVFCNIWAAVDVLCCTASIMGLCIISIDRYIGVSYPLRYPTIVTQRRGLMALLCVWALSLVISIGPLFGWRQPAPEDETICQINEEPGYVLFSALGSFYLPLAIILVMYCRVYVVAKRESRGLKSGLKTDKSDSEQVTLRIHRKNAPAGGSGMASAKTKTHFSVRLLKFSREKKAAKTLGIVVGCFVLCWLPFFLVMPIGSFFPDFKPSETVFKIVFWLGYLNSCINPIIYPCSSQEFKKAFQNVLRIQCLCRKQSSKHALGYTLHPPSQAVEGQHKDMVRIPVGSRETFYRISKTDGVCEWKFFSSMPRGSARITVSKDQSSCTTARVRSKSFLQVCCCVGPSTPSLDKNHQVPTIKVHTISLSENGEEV

Test [2] deals with T2, Gastrin/cholecystokinin type B receptor (Homo sapiens, UniProt P32239).
T2 sequence (P32239 whole entry): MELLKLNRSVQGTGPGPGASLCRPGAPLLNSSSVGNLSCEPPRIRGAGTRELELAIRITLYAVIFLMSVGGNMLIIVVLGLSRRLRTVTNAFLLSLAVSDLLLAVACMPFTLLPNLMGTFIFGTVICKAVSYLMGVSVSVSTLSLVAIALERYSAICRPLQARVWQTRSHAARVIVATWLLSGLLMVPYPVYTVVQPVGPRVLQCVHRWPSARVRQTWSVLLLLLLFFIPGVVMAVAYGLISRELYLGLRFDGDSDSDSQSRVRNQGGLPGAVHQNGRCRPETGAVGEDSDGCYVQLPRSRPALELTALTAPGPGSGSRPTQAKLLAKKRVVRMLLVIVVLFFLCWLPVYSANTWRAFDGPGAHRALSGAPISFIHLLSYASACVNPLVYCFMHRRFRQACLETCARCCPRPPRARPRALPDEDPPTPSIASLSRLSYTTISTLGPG

Test [3] addresses 5-hydroxytryptamine receptor 2B (Homo sapiens, UniProt P41595). It is filed as functional, cell-based.
A further test has as its target T3, Glucocorticoid receptor (Homo sapiens, UniProt P04150).
T3 sequence (P04150 whole entry): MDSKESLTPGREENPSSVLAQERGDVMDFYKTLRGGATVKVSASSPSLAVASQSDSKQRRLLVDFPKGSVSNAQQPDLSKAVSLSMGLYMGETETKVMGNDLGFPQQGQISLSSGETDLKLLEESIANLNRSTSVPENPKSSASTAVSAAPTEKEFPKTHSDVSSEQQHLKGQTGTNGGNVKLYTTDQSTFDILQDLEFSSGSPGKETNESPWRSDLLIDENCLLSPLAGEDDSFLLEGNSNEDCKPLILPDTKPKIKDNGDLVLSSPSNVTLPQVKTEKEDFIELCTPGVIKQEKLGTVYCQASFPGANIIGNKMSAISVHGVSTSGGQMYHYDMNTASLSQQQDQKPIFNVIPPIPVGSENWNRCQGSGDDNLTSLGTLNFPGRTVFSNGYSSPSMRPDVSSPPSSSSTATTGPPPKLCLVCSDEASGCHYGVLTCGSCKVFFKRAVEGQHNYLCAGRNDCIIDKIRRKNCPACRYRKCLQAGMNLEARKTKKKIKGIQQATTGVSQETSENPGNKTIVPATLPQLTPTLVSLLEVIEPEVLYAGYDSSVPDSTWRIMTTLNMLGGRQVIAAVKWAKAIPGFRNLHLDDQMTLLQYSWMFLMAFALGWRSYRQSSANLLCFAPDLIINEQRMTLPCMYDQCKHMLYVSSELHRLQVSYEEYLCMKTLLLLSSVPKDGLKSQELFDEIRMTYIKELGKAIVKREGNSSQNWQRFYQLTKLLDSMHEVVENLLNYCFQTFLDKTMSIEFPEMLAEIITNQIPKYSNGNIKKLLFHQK

For test [4], the target named is T4, Alpha-2B adrenergic receptor (Homo sapiens, UniProt P18089).
T4 sequence (P18089 whole entry): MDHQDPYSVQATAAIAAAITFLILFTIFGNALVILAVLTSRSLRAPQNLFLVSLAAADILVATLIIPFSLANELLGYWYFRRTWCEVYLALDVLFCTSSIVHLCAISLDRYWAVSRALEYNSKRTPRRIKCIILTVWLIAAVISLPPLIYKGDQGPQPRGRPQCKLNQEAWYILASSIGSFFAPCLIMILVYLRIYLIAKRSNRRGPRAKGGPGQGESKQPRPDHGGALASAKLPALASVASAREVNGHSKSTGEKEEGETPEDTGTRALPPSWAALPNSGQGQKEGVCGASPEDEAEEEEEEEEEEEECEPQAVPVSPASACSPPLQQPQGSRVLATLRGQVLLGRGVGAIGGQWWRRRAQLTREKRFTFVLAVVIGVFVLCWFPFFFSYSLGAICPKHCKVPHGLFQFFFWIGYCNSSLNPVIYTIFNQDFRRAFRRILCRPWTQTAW

The target of test [5] is 5-hydroxytryptamine receptor 2A (Homo sapiens, UniProt P28223). The format is functional, cell-based.
For test [6], the target named is T5, Alpha-2A adrenergic receptor (Homo sapiens, UniProt P08913).
T5 sequence (P08913 whole entry): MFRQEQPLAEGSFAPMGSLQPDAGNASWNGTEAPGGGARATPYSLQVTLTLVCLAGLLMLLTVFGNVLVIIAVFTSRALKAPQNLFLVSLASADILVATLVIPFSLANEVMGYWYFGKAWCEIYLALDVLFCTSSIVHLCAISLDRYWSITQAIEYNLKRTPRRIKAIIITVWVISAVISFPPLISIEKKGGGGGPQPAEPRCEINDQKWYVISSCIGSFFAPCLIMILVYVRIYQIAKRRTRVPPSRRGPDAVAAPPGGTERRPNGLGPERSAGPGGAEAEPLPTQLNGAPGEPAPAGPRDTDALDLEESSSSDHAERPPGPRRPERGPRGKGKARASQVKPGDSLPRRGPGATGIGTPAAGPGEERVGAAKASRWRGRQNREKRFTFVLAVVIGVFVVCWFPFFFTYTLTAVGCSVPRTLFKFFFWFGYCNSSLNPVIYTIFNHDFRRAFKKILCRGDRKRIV

Another test concerns the target Histamine H3 receptor (Homo sapiens, UniProt Q9Y5N1).
Test [7] has as its target cGMP-inhibited 3',5'-cyclic phosphodiesterase 3A (Homo sapiens, UniProt Q14432). It is filed as functional.
The target of test [8] is Sodium-dependent dopamine transporter (Homo sapiens, UniProt Q01959).

Structures are written as SMILES.

The values below come from ChEMBL document CHEMBL5291721, “A preclinical secondary pharmacology resource illuminates target-adverse drug reaction associations of marketed drugs” (Nat Commun, 2023).
Further: assay procedure not described here.

Sequence of Histamine H3 receptor (Q9Y5N1 whole entry): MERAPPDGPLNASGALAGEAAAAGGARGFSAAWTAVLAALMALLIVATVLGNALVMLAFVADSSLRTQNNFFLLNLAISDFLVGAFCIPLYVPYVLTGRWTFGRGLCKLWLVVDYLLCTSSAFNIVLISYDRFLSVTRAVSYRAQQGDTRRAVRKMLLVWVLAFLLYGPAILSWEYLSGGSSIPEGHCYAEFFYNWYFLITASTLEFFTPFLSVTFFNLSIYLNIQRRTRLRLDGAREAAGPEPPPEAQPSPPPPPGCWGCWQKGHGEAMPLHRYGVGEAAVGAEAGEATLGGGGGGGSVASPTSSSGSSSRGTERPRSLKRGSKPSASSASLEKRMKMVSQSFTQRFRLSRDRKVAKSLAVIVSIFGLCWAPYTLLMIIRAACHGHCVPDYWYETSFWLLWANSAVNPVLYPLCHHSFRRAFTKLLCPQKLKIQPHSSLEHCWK
Sequence of Sodium-dependent dopamine transporter (Q01959 whole entry): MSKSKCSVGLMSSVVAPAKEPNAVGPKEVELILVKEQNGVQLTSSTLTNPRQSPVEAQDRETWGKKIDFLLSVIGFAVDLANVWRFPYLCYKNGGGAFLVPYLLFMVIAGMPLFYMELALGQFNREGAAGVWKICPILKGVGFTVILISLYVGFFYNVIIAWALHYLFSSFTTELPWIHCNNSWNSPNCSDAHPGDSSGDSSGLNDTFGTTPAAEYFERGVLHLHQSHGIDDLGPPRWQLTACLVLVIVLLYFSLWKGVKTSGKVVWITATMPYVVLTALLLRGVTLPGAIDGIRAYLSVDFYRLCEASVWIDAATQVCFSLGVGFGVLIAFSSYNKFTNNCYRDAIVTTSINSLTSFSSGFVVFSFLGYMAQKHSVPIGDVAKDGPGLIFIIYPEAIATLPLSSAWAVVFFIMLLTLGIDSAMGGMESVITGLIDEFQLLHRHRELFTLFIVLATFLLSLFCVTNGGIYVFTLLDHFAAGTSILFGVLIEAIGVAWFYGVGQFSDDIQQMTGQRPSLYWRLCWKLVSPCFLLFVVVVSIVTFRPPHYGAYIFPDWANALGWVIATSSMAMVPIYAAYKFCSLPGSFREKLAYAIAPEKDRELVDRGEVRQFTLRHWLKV
Sequence of cGMP-inhibited 3',5'-cyclic phosphodiesterase 3A (Q14432 whole entry): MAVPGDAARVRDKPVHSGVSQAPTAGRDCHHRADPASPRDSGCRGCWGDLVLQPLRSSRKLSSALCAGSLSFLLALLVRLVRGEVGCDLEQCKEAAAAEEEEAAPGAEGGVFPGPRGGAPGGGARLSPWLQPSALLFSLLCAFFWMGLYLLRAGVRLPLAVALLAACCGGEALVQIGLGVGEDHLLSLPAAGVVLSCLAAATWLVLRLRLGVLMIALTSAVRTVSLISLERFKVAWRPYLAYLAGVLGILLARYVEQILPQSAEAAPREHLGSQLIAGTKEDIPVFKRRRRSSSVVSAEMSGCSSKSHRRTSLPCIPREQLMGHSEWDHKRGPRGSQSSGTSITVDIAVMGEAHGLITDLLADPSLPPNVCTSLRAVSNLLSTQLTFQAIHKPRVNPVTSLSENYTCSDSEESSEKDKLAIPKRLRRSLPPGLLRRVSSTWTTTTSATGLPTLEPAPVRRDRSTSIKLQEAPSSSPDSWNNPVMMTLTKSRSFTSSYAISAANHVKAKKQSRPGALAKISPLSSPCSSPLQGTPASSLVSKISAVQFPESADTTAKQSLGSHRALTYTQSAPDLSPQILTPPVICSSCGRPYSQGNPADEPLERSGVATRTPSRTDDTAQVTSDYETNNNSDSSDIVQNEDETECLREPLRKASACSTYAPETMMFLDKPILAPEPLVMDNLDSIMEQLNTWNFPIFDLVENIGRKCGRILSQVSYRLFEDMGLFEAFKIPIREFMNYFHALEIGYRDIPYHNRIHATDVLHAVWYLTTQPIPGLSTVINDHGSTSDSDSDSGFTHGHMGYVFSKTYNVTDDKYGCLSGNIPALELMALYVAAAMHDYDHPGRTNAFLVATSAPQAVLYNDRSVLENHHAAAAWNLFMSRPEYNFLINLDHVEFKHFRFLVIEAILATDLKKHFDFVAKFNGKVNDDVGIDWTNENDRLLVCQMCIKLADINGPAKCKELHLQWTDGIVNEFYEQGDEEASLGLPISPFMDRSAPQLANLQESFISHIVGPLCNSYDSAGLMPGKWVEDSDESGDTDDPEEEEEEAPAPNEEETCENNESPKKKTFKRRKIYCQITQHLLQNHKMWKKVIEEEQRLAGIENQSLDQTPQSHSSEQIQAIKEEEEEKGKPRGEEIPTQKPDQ
Sequence of 5-hydroxytryptamine receptor 2B (P41595 whole entry): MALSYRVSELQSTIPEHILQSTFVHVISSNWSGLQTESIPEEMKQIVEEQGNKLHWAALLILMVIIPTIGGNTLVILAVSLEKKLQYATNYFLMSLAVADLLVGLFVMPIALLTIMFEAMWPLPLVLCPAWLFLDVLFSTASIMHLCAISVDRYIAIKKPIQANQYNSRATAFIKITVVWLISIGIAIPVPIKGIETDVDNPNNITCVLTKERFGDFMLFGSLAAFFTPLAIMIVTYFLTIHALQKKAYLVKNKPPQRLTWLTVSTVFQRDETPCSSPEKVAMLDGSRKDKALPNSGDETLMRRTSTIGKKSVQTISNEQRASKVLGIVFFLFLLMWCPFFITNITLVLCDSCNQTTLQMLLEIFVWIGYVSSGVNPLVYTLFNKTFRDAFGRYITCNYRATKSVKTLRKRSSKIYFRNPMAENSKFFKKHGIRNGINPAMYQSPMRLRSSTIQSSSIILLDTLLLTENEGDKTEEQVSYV
Sequence of 5-hydroxytryptamine receptor 2A (P28223 whole entry): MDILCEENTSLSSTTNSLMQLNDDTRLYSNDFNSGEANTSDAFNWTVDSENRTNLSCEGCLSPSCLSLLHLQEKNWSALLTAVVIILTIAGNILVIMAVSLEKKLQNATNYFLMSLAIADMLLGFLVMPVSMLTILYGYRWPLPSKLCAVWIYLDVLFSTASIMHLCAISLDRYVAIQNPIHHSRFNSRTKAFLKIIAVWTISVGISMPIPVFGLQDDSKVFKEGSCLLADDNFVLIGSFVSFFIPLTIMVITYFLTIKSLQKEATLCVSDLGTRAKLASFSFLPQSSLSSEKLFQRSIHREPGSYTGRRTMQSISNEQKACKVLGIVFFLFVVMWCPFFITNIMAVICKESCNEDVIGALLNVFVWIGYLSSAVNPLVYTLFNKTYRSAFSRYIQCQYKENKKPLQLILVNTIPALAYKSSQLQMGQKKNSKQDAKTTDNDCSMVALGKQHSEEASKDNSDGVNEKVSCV

With `CCOC(=O)[C@H](CCc1ccccc1)N[C@@H](C)C(=O)N1[C@H](C(=O)O)C[C@@H]2CCC[C@@H]21`, the half-maximal activity concentration (AC50) (as a rule, the concentration at which the activity in the assay is half-maximal) in test [1] is above 10 µM; in test [2], above 30 µM; in test [3], above 10 µM; on Glucocorticoid receptor, above 30 µM.
Turning to `CCCSc1ccc2nc(NC(=O)OC)[nH]c2c1` [ALBENDAZOLE], the AC50 (in [1]; in test [3]; at Glucocorticoid receptor) was above 10 µM each time.
`CNC(=O)c1ccccc1Sc1ccc2c(/C=C/c3ccccn3)n[nH]c2c1` [AXITINIB]: the AC50 is above 10 µM in [1], above 30 µM in [4], above 30 µM in test [5] and above 30 µM in [3].
In the case of `NCC(CC(=O)O)c1ccc(Cl)cc1` (stereo not given) [BACLOFEN], the AC50 is above 10 µM in test [1]; above 30 µM in [6]; above 30 µM in test [2]; above 30 µM on Histamine H3 receptor; above 30 µM in test [3]; above 30 µM on Glucocorticoid receptor. Also, the half-maximal activity concentration (AC50) in test [7] and in test [8] was above 30 µM each time.
Turning to `CC(C)C[C@H]1C(=O)N2CCC[C@H]2[C@]2(O)O[C@](NC(=O)[C@@H]3C=C4c5cccc6[nH]c(Br)c(c56)C[C@H]4N(C)C3)(C(C)C)C(=O)N12` [BROMOCRIPTINE], the AC50 in [1] was 0.197 µM; in test [2] it was above 30 µM; at Histamine H3 receptor, above 30 µM; in test [3] it was 0.538 µM; at Glucocorticoid receptor it was above 30 µM; in [7] it was above 30 µM. The compound also had an AC50 in test [8] above 30 µM.
Consider `Cc1ccc(-c2cc(C(F)(F)F)nn2-c2ccc(S(N)(=O)=O)cc2)cc1` [CELECOXIB], for which the AC50 in [1] was above 10 µM; in test [2] it was above 10 µM; in [3] it was above 10 µM; at Glucocorticoid receptor, above 30 µM.
In the case of `CC1=C(C(=O)O)N2C(=O)[C@@H](NC(=O)[C@H](N)c3ccccc3)[C@H]2SC1` [CEPHALEXIN ANHYDROUS], the AC50 in test [1] is 5.78 µM; in [2] it was above 30 µM; on Glucocorticoid receptor, above 30 µM.
For `CN(C)CCC(c1ccc(Cl)cc1)c1ccccn1` (stereo not given) [CHLORPHENIRAMINE], the AC50 in [1] was 7.01 µM; in [2], above 30 µM; in test [3], above 10 µM; at Glucocorticoid receptor it was above 30 µM.
For `CN(C)/N=N/c1[nH]cnc1C(N)=O` [DACARBAZINE], the half-maximal activity concentration (AC50) (in test [1]; in [3]; on Glucocorticoid receptor) was above 10 µM in each case.
Take `O=P1(NCCCl)OCCCN1CCCl` (stereo not given) [IFOSFAMIDE]: the AC50 (in [1]; in test [2]; in [3]; at Glucocorticoid receptor) was above 30 µM in each case.
For `Cc1cccc(Nc2ccccc2C(=O)O)c1C` [MEFENAMIC ACID], the concentration at half-maximal activity (AC50) in [1] is above 10 µM; in [6] it was above 30 µM; at Histamine H3 receptor, above 30 µM; in test [3], above 10 µM; on Glucocorticoid receptor it was above 10 µM; in test [7] it was above 30 µM. Also, in test [8], the AC50 is above 30 µM.
Turning to `C[C@@H](O)[C@H]1C(=O)N2C(C(=O)O)=C(S[C@@H]3CN[C@H](C(=O)N(C)C)C3)[C@H](C)[C@H]12` [MEROPENEM], the half-maximal activity concentration (AC50) is above 10 µM in test [1], above 300 µM in test [3] and above 10 µM on Glucocorticoid receptor.
For `Clc1ccc(C(c2ccccc2Cl)C(Cl)Cl)cc1` (stereo not given) [MITOTANE], the figures for the AC50 (in test [1]; in test [3]; at Glucocorticoid receptor) were above 10 µM, above 10 µM and 1.4 µM, respectively.
`CCCN1C[C@H](CSC)C[C@@H]2c3cccc4[nH]cc(c34)C[C@H]21` [PERGOLIDE]: the AC50 was 1.78 µM in test [1], above 30 µM in [2] and above 30 µM on Glucocorticoid receptor.
As for `CS(=O)(=O)c1ccc(C2=C(c3ccccc3)C(=O)OC2)cc1` [ROFECOXIB], the AC50 in [1] was above 10 µM; in test [6] it was above 30 µM; in [2] it was above 30 µM; at Histamine H3 receptor it was above 30 µM; in [3] it was above 30 µM; at Glucocorticoid receptor, above 30 µM. Besides, the AC50 in test [7] and in test [8] was above 30 µM in each case.
Take `CO[C@H]1C[C@@H]2CC[C@@H](C)[C@@](O)(O2)C(=O)C(=O)N2CCCC[C@H]2C(=O)O[C@H]([C@H](C)C[C@@H]2CC[C@@H](O)[C@H](OC)C2)CC(=O)[C@H](C)/C=C(\C)[C@@H](O)[C@@H](OC)C(=O)[C@H](C)C[C@H](C)/C=C/C=C/C=C/1C` [SIROLIMUS]: the AC50 in [1] is 0.156 µM; in test [6], above 30 µM; in test [2], above 30 µM; on Histamine H3 receptor, above 30 µM; in test [3], above 10 µM; in test [7], above 30 µM. For the same compound, in test [8], the AC50 is above 30 µM.
Consider `Cc1cn([C@H]2C=C[C@@H](CO)O2)c(=O)[nH]c1=O` [STAVUDINE], for which the AC50 in [1] was 29.9 µM; in [6] it was above 30 µM; in test [2] it was above 30 µM; at Histamine H3 receptor, above 30 µM; in [3] it was above 10 µM; in test [7], above 30 µM. The compound further returned an AC50 in test [8] above 30 µM.
As for `Clc1ccc2nsnc2c1NC1=NCCN1` [TIZANIDINE], the AC50 is 3.9 µM in test [1]; 0.292 µM in [4]; above 30 µM in test [2]; above 30 µM in test [3]; above 30 µM at Glucocorticoid receptor.
As for `Cc1cn([C@H]2C[C@H](N=[N+]=[N-])[C@@H](CO)O2)c(=O)[nH]c1=O` [ZIDOVUDINE], the AC50 in test [1] was above 10 µM; in [6], above 30 µM; in test [2], above 30 µM; on Histamine H3 receptor, above 30 µM; in test [3] it was above 10 µM; on Glucocorticoid receptor, above 30 µM. In addition, the AC50 in [7] and in test [8] was above 30 µM in each case.
